# Reference: patent publication US20200291082A1, “PREVENTION AND TREATMENT OF GRAFT-VERSUS-HOST-DISEASE WITH DEFENSINS” (priority 2017, published 2020)
# No end group written: not given here.
# Tests used:
# [1] = tested on: Trinitrobenzene Sulfonic Acid induced colitis; assay: prophylactic murine 8-day Trinitrobenzene Sulfonic Acid induced colitis model (Example 3); format: in vivo, BALB/cByJ mice
# Description: Anti-inflammatory effect of s.c. administration of hBD2 versus s.c. prednisolone in a prophylactic murine, 8-day Trinitrobenzene Sulfonic Acid induced colitis model.
# 105 male BALB/cByJ mice housed in groups of five per cage were allocated to 7 different treatment groups. Colitis was induced by intracolonic administration of trinitrobenzene sulfonic acid on day 0 under light anaesthesia resulting in significant inflammation and injury of the colonic tissue. The animals were treated with hBD2 at four different dosing levels once daily (1 mg/kg, 0.3 mg/kg, 0.1 mg/kg, and 0.03 mg/kg) or Prednisolone 10 mg/kg once daily dosed subcutaneously under the dorsal skin or PBS as vehicle for 7 days.
# A disease activity index (DAI) scoring system was applied for clinical assessment (FIG. 7). The animals were sacrificed on day 10 and colon removed for histological assessment employing a histological scoring system (FIG. 8).
# [2] = tested on: house dust mite model of allergic asthma; assay: therapeutic intranasal versus oral hBD2 in murine house dust mite model of allergic asthma (Example 10); format: in vivo, BALB/c mice
# Description: To determine and assess the efficacy of IN versus oral therapeutic intervention with defensins in a murine house dust mite model of allergic asthma.
# Treatment regime: Female 7-10 weeks old BALB/c mice were randomly allocated into 7 study groups one day prior to study start and subcutaneously (SC) sensitized to house dust mite (100 μg HDM in 200 μL saline plus Freund's complete adjuvant in 0.9% saline). Mice were then intranasally (IN) challenged with HDM on day 14 (HDM 25 μg in 50 μL of saline). Dexamethasone was administered orally (1 mg/kg BID; 50 μL phosphate buffered saline (PBS)) on day 14. hBD2 was administered IN or orally (1.7 mg/kg TID IN; 0.4 mg/kg TID IN; 0.4 mg/kg TID orally, 50 μL phosphate buffered saline) on day 14. The initial dose was administered 60 minutes prior to challenge, and the subsequent doses approximately 6 hours apart (FIG. 5).
# Airway inflammation: At 48 hours post challenge, bronchoalveolar lavage was performed washing the lungs with 3 volumes of cold PBS (0.4; 0.3 and 0.3 mL, total 1 mL). Total and differential leucocyte cell counts were determined on an automated haematological analyser Sysmex XT-2000iV.
# Data are represented as airway resistance at […] methacholine and as dose responsive curves.
# Lung sampling for cytokine analysis: After completion of every BAL, lungs were removed from the thorax, snap frozen in liquid nitrogen and stored frozen at −80 degrees Celsius until analysis of cytokine concentration of IL-1β, TNF-α, IL-6, IL-10 and IFNγ by ELISA.
# [3] = tested on: house dust mite model of allergic asthma; assay: therapeutic intranasal versus oral hBD2 in murine house dust mite model of allergic asthma, lung histopathology and cytokines (Example 11); format: in vivo, BALB/c mice
# Description: To determine and assess the efficacy of IN versus oral therapeutic intervention with administration of defensins in a murine house dust mite model of allergic asthma.
# Treatment regime: Female 7-10 weeks old BALB/c mice randomly allocated into 4 study groups one day prior to study start were subcutaneously (SC) sensitized to house dust mite (100 μg HDM in 200 μL saline plus Freund's complete adjuvant in 0.9% saline). Mice were intranasally (IN) challenged with HDM on day 14 (HDM 25 μg in 50 μL of saline). hBD2 was administered IN or orally (0.4 mg/kg TID IN; 0.4 mg/kg TID orally, 50 μL phosphate buffered saline) on day 14. The initial dose was administered 60 minutes prior to challenge, and the subsequent doses approximately 6 hours apart.
# Lung tissue sampling: Lungs were removed from the thorax, snap frozen in liquid nitrogen and stored frozen at −80 degrees Celsius until analysis of cytokine concentration of IL-4, IL-5, IL-8 (KC), IL-9 and IL-13 in lung homogenate by ELISA. Lungs were inflated in situ in 10% buffered formalin, removed from thorax, placed individually in 10% buffered formalin, paraffin embedded in toto, sectioned and H&E/PAS stained.
# Blood sampling: All terminal blood samples were collected via jugular vein bleeds. Blood was sampled to Li-heparin tubes, put on ice and immediately centrifuged at 4° C. Plasma was separated and stored at -80° C. until the potential SCFA analysis. Lung tissue sampling: The lungs were exposed and excised by gently opening the thorax and by cutting down either side of the sternum and ribs and trimming back. Lungs from the first 6 animals per group were removed from thorax, snap frozen in liquid nitrogen and stored frozen at −80° C. until analysis of cytokine concentration by ELISA.
# Lungs from the other 8 animals per group were inflated in situ with 10% buffered formalin, removed from thorax, placed individually in 10% buffered formalin, paraffin embedded in toto, sectioned and H&E/PAS stained. The paraffin blocks were retained for the IHC analysis.
# Read-Outs • Histopathology (H&E; PAS) (N=8/group; total N=32) • Cytokines in lung tissue homogenates (IL-4, IL-5, IL-8 (KC), IL-9 and IL-13) (N=6/group; total N=24)
# Cellular influx (mononuclears, eosinophils, neutrophils) was assessed semi-quantitatively on H&E stained slides separately for peri-bronchial/bronchiolar and perivascular space as follows: • 0 absent • 1 few scattered inflammatory cells • 2 larger aggregates • 3 marked accumulation of cells
# Overall score for inflammation was calculated as the sum of all individual scores.
# [4] = dexamethasone 1 mg/kg BID oral, hBD2 both IN doses (0.4 mg/kg/day TID and 1.7 mg/kg/day TID)
# [5] = hBD2 both oral and intranasal TID on day 14, versus HDM challenged vehicle
substance,measurement,setting,value
human beta defensin 2 (GIGDPVTCLKSGAICHPVFCPRRYKQIGTCGLPGTKCCKKP; not fully specified (bridges); ends and bridges not checked; listed as Homo sapiens) [hBD2],histological score,"[1]; FIG. 13, 0.03 and 0.1 mg/kg hBD2 (Group E and F), on par with prednisolone 10 mg/kg",statistical significant effect
same,histological score,"[1]; Prednisolone 10 mg/kg s.c. once daily, hBD2 at 0.1, 0.3 and 1 mg/kg s.c. once daily",highly statistically significant clinical effect on histological score
same,body weight,[1]; hBD2 0.03 and 0.1 mg/kg OD s.c.,highly statistically significant increase in body weight
same,eosinophil counts in BALF,[2]; [4],trend towards lowering of eosinophils
same,macrophage counts in BALF,[2]; [4],significantly inhibited
same,neutrophil counts in BALF,[2]; [4],significantly inhibited
same,total cell counts in BALF,[2]; [4],significantly inhibited
same,IL-6 level in lung tissue homogenates,"[2]; hBD2, both dosing routes",significant effects
same,IL-10 level in lung tissue homogenates,"[2]; hBD2, both dosing routes",significant effects
same,airway resistance,[2]; [5],effectively inhibited increase of airway resistance
same,pulmonary compliance,[2]; [5],effectively inhibited
same,TNF-α level in lung tissue homogenates,[2]; intranasally administered hBD2,differed from the control but not significantly
same,TNF-α level in lung tissue homogenates,[2]; perorally administered hBD2,significantly reduced TNF-α
same,IL-9 level in lung tissue homogenates,[3]; IN administration,Significant effects
same,IL-13 level in lung tissue homogenates,[3]; IN administration,Significant effects
same,histological inflammation of lung tissue,"[3]; hBD2 both oral and intranasal 0.4 mg/kg TID on day 14, versus HDM challenged vehicle",effectively inhibited the increase in histological inflammation of lung tissue
same,IL-4 level in lung tissue homogenates,[3]; oral administration,Significant effects
same,IL-9 level in lung tissue homogenates,[3]; oral administration,Significant effects
same,IL-13 level in lung tissue homogenates,[3]; oral administration,Significant effects
